MIC data for 12 molecules are collected here from ChEMBL document CHEMBL1143950, “Antifungal and cytotoxic activities of some N-substituted aniline derivatives bearing a hetaryl fragment” (Bioorg Med Chem, 2008).

In general, MIC refers to the least concentration at which growth counts as inhibited.

≈ marks a conversion by molar mass, not a printed value.

Assay type in all cases: functional
One test deals with Cryptococcus neoformans. Nature of the test: Antifungal activity against Cryptococcus neoformans ATCC 32264 by microbroth dilution method. In general terms: Dilution methods test growth across graded concentrations, often in twofold steps.
For another test, the system named is Saccharomyces cerevisiae. Nature of the test: Antifungal activity against Saccharomyces cerevisiae ATCC 9763 by microbroth dilution method.
For test [1], the system named is Trichophyton mentagrophytes. Nature of the test: Antifungal activity against Trichophyton mentagrophytes ATCC 9972 by micro-broth dilution method.
In the next test the test system is Nannizzia gypsea. In words: Antifungal activity against Microsporum gypseum C115 by microbroth dilution method.
For another test, the system named is Candida tropicalis. Nature of the test: Antifungal activity against Candida tropicalis C131 by micro-broth dilution method.
The test system of the next test is Aspergillus flavus. Nature of the test: Antifungal activity against Aspergillus flavus ATCC 9170 by micro-broth dilution method.
The subject of another test is Candida albicans. In words: Antifungal activity against Candida albicans ATCC 10231 by micro-broth dilution method.
In the next test the test system is Aspergillus niger. Nature of the test: Antifungal activity against Aspergillus niger ATCC 9029 by micro-broth dilution method.
Another test concerns Trichophyton rubrum. In words: Antifungal activity against Trichophyton rubrum C113 by microbroth dilution method.
The next test has as its system Aspergillus fumigatus. In words: Antifungal activity against Aspergillus fumigatus ATCC 26934 by micro-broth dilution method.

For `c1ccc(NCc2ccccn2)cc1`, the MIC was greater than 250 µg/mL against Cryptococcus neoformans; greater than 250 µg/mL in the test on Saccharomyces cerevisiae; 25 µg/mL (≈ 136 µM) in test [1]; 125 µg/mL (≈ 678 µM) with Nannizzia gypsea; 250 µg/mL (≈ 1360 µM) in the test with Candida tropicalis; greater than 250 µg/mL against Aspergillus flavus. Further, the MIC against Candida albicans was determined as 250 µg/mL (≈ 1360 µM); with Aspergillus niger, 250 µg/mL (≈ 1360 µM); against Trichophyton rubrum, 25 µg/mL (≈ 136 µM); in the test on Aspergillus fumigatus, 250 µg/mL (≈ 1360 µM).
`Cn1cccc1C(C#N)Nc1ccccc1` (stereo not drawn): the MIC against Cryptococcus neoformans is greater than 250 µg/mL; against Saccharomyces cerevisiae, greater than 250 µg/mL; in [1], 250 µg/mL (≈ 1180 µM); with Nannizzia gypsea, 250 µg/mL (≈ 1180 µM); in the test on Candida tropicalis, greater than 250 µg/mL; in the test on Aspergillus flavus, greater than 250 µg/mL. The MIC in the test on Candida albicans was greater than 250 µg/mL; in the test on Aspergillus niger, greater than 250 µg/mL; in the test with Trichophyton rubrum, 250 µg/mL (≈ 1180 µM); against Aspergillus fumigatus, greater than 250 µg/mL.
In the case of `Cc1ccc(NCc2ccccn2)cc1`, the MIC was greater than 250 µg/mL against Cryptococcus neoformans; greater than 250 µg/mL against Saccharomyces cerevisiae; 50 µg/mL (≈ 252 µM) in [1]; 50 µg/mL (≈ 252 µM) in the test on Nannizzia gypsea; greater than 250 µg/mL against Candida tropicalis; greater than 250 µg/mL in the test on Aspergillus flavus. Also, the MIC against Candida albicans is greater than 250 µg/mL; against Aspergillus niger, greater than 250 µg/mL; in the test with Trichophyton rubrum, 50 µg/mL (≈ 252 µM); against Aspergillus fumigatus, greater than 250 µg/mL.
For `N#CC(Nc1ccccc1)c1ccsc1` (stereo not drawn), the MIC against Cryptococcus neoformans was greater than 250 µg/mL; in the test with Saccharomyces cerevisiae it was greater than 250 µg/mL; in test [1] it was 250 µg/mL (≈ 1170 µM); in the test on Nannizzia gypsea it was greater than 250 µg/mL; in the test on Candida tropicalis, greater than 250 µg/mL; with Aspergillus flavus, greater than 250 µg/mL. Moreover, the MIC was greater than 250 µg/mL in the test on Candida albicans, greater than 250 µg/mL against Aspergillus niger, 250 µg/mL (≈ 1170 µM) against Trichophyton rubrum and greater than 250 µg/mL against Aspergillus fumigatus.
Turning to `C=CCC(Nc1ccc(C)cc1)c1ccco1` (stereo not drawn), the minimal inhibitory concentration (MIC) (with Cryptococcus neoformans; with Saccharomyces cerevisiae; in [1]; in the test with Nannizzia gypsea; against Candida tropicalis; in the test on Aspergillus flavus) was greater than 250 µg/mL each time. In addition, the MIC in the test with Candida albicans, against Aspergillus niger, with Trichophyton rubrum and against Aspergillus fumigatus was greater than 250 µg/mL each time.
Consider `N#CC(Nc1ccc(Cl)cc1)c1ccsc1` (stereo not drawn), for which the MIC in the test on Cryptococcus neoformans was greater than 250 µg/mL; with Saccharomyces cerevisiae, greater than 250 µg/mL; in test [1], 125 µg/mL (≈ 503 µM); in the test on Nannizzia gypsea, 250 µg/mL (≈ 1010 µM); in the test with Candida tropicalis it was greater than 250 µg/mL; in the test with Aspergillus flavus, greater than 250 µg/mL. The MIC with Candida albicans is greater than 250 µg/mL; with Aspergillus niger, greater than 250 µg/mL; in the test with Trichophyton rubrum it was 125 µg/mL (≈ 503 µM); in the test with Aspergillus fumigatus it was greater than 250 µg/mL.
As to `N#CC(Nc1ccccc1)c1cccs1` (stereo not drawn), the MIC with Cryptococcus neoformans was greater than 250 µg/mL; with Saccharomyces cerevisiae, greater than 250 µg/mL; in test [1] it was 250 µg/mL (≈ 1170 µM); against Nannizzia gypsea, greater than 250 µg/mL; with Candida tropicalis, greater than 250 µg/mL; against Aspergillus flavus it was greater than 250 µg/mL. The MIC was greater than 250 µg/mL against Candida albicans, greater than 250 µg/mL against Aspergillus niger, 250 µg/mL (≈ 1170 µM) against Trichophyton rubrum and greater than 250 µg/mL against Aspergillus fumigatus.
In the case of `O=[N+]([O-])c1cccc(NCc2ccccn2)c1`, the MIC in the test with Cryptococcus neoformans worked out at 50 µg/mL (≈ 218 µM); with Saccharomyces cerevisiae it was 100 µg/mL (≈ 436 µM); in test [1], 50 µg/mL (≈ 218 µM); against Nannizzia gypsea, 50 µg/mL (≈ 218 µM); against Candida tropicalis, 100 µg/mL (≈ 436 µM); against Aspergillus flavus, 100 µg/mL (≈ 436 µM). The MIC is 100 µg/mL (≈ 436 µM) in the test with Candida albicans, 200 µg/mL (≈ 872 µM) in the test on Aspergillus niger, 50 µg/mL (≈ 218 µM) in the test with Trichophyton rubrum and 200 µg/mL (≈ 872 µM) against Aspergillus fumigatus.
As for `Cc1cc(C)cc(NCc2cccnc2)c1`, the MIC against Cryptococcus neoformans was 100 µg/mL (≈ 471 µM); against Saccharomyces cerevisiae it was 200 µg/mL (≈ 942 µM); in test [1], 25 µg/mL (≈ 118 µM); in the test with Nannizzia gypsea, 25 µg/mL (≈ 118 µM); in the test with Candida tropicalis it was greater than 250 µg/mL; with Aspergillus flavus, 200 µg/mL (≈ 942 µM). In addition, the MIC against Candida albicans is greater than 250 µg/mL; in the test on Aspergillus niger, 200 µg/mL (≈ 942 µM); in the test with Trichophyton rubrum, 25 µg/mL (≈ 118 µM); with Aspergillus fumigatus it was 100 µg/mL (≈ 471 µM).
For `Clc1ccc(NCc2ccncc2)cc1`, the MIC in the test with Cryptococcus neoformans was 62.5 µg/mL (≈ 286 µM); in the test on Saccharomyces cerevisiae, 62.5 µg/mL (≈ 286 µM); in test [1], 62.5 µg/mL (≈ 286 µM); in the test on Nannizzia gypsea it was 62.5 µg/mL (≈ 286 µM); in the test on Candida tropicalis it was 31.2 µg/mL (≈ 143 µM); in the test on Aspergillus flavus, 125 µg/mL (≈ 572 µM). Further, the MIC against Candida albicans came to 31.2 µg/mL (≈ 143 µM); with Aspergillus niger it was 125 µg/mL (≈ 572 µM); in the test on Trichophyton rubrum it was 62.5 µg/mL (≈ 286 µM); against Aspergillus fumigatus it was 125 µg/mL (≈ 572 µM).
Consider `C=CCC(Nc1ccccc1)c1cccs1` (stereo not drawn), for which the MIC against Cryptococcus neoformans is greater than 250 µg/mL; in the test with Saccharomyces cerevisiae, greater than 250 µg/mL; in [1] it was 125 µg/mL (≈ 545 µM); with Nannizzia gypsea it was 125 µg/mL (≈ 545 µM); against Candida tropicalis, greater than 250 µg/mL; in the test with Aspergillus flavus, greater than 250 µg/mL. In addition, the MIC with Candida albicans is greater than 250 µg/mL; against Aspergillus niger, greater than 250 µg/mL; with Trichophyton rubrum, 125 µg/mL (≈ 545 µM); against Aspergillus fumigatus it was greater than 250 µg/mL.
For the molecule `CN(C/C=C/C#CC(C)(C)C)Cc1cccc2ccccc12` [TERBINAFINE], the MIC in test [1] was 0.04 µg/mL (≈ 0.137 µM); with Nannizzia gypsea, 0.04 µg/mL (≈ 0.137 µM); in the test on Trichophyton rubrum, 0.01 µg/mL (≈ 0.0343 µM).
